Reference: EP0060659A1, “Pharmaceutical composition for tumour treatment and process for preparing it” (NATIONAL FOUNDATION FOR CANCER RESEARCH, INC., priority 1981, dated 1982)
Values joined by “and” are separate entries in the source; they are usually repeats but may differ in a detail not shown here. Equal values may be shown once.

Tests used:
Ehrlich ascites cells = assay: Ehrlich ascites tumour in mice, test substance in drinking water (Example 2); type: in vivo, adult female white Swiss mice; set-up: average weight of the tumours / weight of the excised tissues (tumour): unit not given here
Description: 30 adult female white Swiss mice were inoculated behind the right foreleg on the ventral side with about 5 x 10^6 Ehrlich ascites cells in 0.2 ml of physiological saline. The mice were randomized and divided into three groups, each group containing 10 animals. All animals received water to drink during days 1 and 2. On day 3, the water of one group (Group B) was replaced by a 0.05 molar solution of glyoxal whilst the water of another group (Group C) was replaced by a 0.05 molar solution of a glyoxal-cysteine adduct prepared essentially as described in Example 1. The third, or control, group (Group A) continued to receive water. All groups could drink ad libidum.
No weight loss was observed.
All animals were narcotized and their tumours excised and cleaned from the surrounding tissues.
In the cases where the tumour which developed was slightly ascitic, the fluid was not weighed and this is believed to account for the rather lower weight of these tumours.

tumour cells = conditions: cited from earlier work

Compound: O=CC=O [glyoxal]
- toxic symptoms or loss of weight (Ehrlich ascites cells; after 7 days, 0.05 molar solution as drinking water): no toxic symptoms or loss of weight
- size or form of the tumour on visual inspection (Ehrlich ascites cells; after 7 days, compared with control group): No significant decrease
- inhibition over the control (Ehrlich ascites cells; from average tumour weights, 0.05 molar solution as drinking water): about 18%
- average weight of the tumours (Ehrlich ascites cells; group of 10 mice, 0.05 molar solution as drinking water from day 3, control group average 1200): 985
- weight of the excised tissues (tumour) (Ehrlich ascites cells; individual animals, 0.05 molar solution as drinking water from day 3, ad libitum, excised after 7 days, * = slightly ascitic tumour, fluid not weighed): 800 and 530 and 190 and 90* and 1270 and 330 and 1220 and 1700 and 2740 and 980

Compound: CC(O)C=CC=O (stereo not drawn) [4-hydroxypentenal]
- toxicity to cells of normal tissues (tumour cells): only slightly toxic
